tested on: human neuroblastoma line BE(2)-M17 (M17) cells; assay: Measurement of Fe efflux from cells (57Fe in media by ICP-MS); format: cell-based; settings: Homo sapiens; M17 cells pre-loaded with 57Fe; compound 20 μM, 2 h; Fe in media as percentage increase relative to cell media in the absence of the compound; read-out: % Fe Efflux Range
Procedure: Compounds of the current invention were assessed for their ability to efflux iron (Fe) from a cell using the following protocol. The human neuroblastoma line BE(2)-M17 (M17) cell cultures were acquired from Sigma Aldrich (Catalogue #: 95011816). M17 cells were maintained in Opti-MEM reduced serum media supplemented with 10% fetal bovine serum (Bovogen, SFBSF) and passaged twice weekly. Cells were cultured at 37° C. in the presence of 5% CO2. Culture supplies were sourced from Thermo Fisher unless otherwise stated. A solution of ^57Fe isotope was prepared by dissolving ^57Fe metal (>95% enrichment, Trace Sciences International) in concentrated HCl to give a final concentration of 573 mM. From this master solution, a 10 mM working solution was prepared in sterile water. The working solution was used within two months of preparation. M17 cells were loaded with iron initially by seeding into 48-well plates at a density of 0.15×10^6 cells per well in 0.5 mL media. After 48 h, old media was discarded. Fresh media was added supplemented from the 10 mM ^57Fe working solution to yield media containing 20 μM ^57Fe isotope. Cells received 0.2 mL of this ^57Fe enriched media and were returned to the incubator for 20 h. The ability of experimental compounds to efflux iron was determined by the dissolution of compounds in DMSO and diluted in Hanks' Balanced Salt Solution (HBSS) for treatment of M17 cells. After ^57Fe incubation, cells were rinsed twice with HBSS and treated with 0.15 ml trial compound for 2 h. Experimental substances were routinely screened at a concentration of 20 μM, however dilutions ranging from 1-40 μM were occasionally applied to further elucidate the properties of key compounds. All assays included a relevant vehicle (0.4%-0.8% DMSO) as well as a positive control. Following the treatment period, 0.1 mL of media was collected from cells and the extracellular ^57Fe content was analysed via inductively coupled mass spectrometry (ICP-MS, Agilent 7700×series instrument). […] After 2 h the Fe levels in the media were measured and the increase determined as a percentage increase relative to the cell media in the absence of the compound. [formula] Representative data is provided in Table 1 where the % Fe efflux for the specified compounds of the invention lie in the following ranges: A<30%, B 30-100%, C 100-150%; D>150%

| SMILES | activation at 20 µM [%] |
| --- | --- |
| CCN(CC)CCc1cccc(-c2nc(-c3ccncc3O)c3n2CCCC3)c1O [Compound 22, 4-(3-(3-(2-(Diethylamino)ethyl)-2-hydroxyphenyl)-5,6,7,8-tetrahydroimidazo[1,5-a]pyridin-1-yl)pyridin-3-ol] | 100 to 150 |
| Oc1ncccc1-c1nc(-c2cccc(Cl)c2O)n2c1CCCC2 [Compound 14, 3-(3-(3-Chloro-2-hydroxyphenyl)-5,6,7,8-tetrahydroimidazo[1,5-a]pyridin-1-yl)pyridin-2-ol] | 100 to 150 |
| Cc1ccc(O)c(-c2nc(-c3ccccc3O)c3n2CC(C(F)(F)F)CC3)c1 (stereo not drawn) [Compound 38, 2-(1-(2-Hydroxyphenyl)-6-(trifluoromethyl)-5,6,7,8-tetrahydroimidazo[1,5-a]pyridin-3-yl)-4-methylphenol] | < 30 |
| Oc1ccccc1-c1nc(-c2c(O)cccc2F)n2c1CCCC2 [Compound 9, 3-Fluoro-2-(1-(2-hydroxyphenyl)-5,6,7,8-tetrahydroimidazo[1,5-a]pyridin-3-yl)phenol] | < 30 |
| Oc1ccccc1-c1nc(-c2cccnc2O)c2n1CCCC2 [Compound 15, 3-(3-(2-hydroxyphenyl)-5,6,7,8-tetrahydroimidazo[1,5-a]pyridin-1-yl)pyridin-2-ol] | 100 to 150 |
| Cc1ccc(O)c(-c2nc(-c3ccccc3O)c3n2CC(C)CC3)c1 (stereo not drawn) [Compound 37, 2-(1-(2-Hydroxyphenyl)-6-methyl-5,6,7,8-tetrahydroimidazo[1,5-a]pyridin-3-yl)-4-methylphenol] | < 30 |
| COC(=O)c1ccc(O)c(-c2nc(-c3ccccc3O)c3n2CCCC3)c1 [Compound 10, Methyl 4-hydroxy-3-(1-(2-hydroxyphenyl)-5,6,7,8-tetrahydroimidazo[1,5-a]pyridin-3-yl)benzoate] | 30 to 100 |
| Oc1ccccc1-c1nc(-c2ccccc2O)n2c1CCCC2 [Compound 7, 2,2′-(5,6,7,8-tetraHydroimidazo[1,5-a]pyridine-1,3-diyl)diphenol] | < 30 |
| Cc1ccc(O)c(-c2nc(-c3cccc(C)c3O)n3c2CCCC3)n1 [Compound 6, 2-(3-(2-Hydroxy-3-methylphenyl)-5,6,7,8-tetrahydroimidazo[1,5-a]pyridin-1-yl)-6-methylpyridin-3-ol] | 100 to 150 |
| Cc1ccc(O)c(-c2nc(-c3cccc(F)c3O)n3c2CCC3)n1 [Compound 59, 2-(3-(3-Fluoro-2-hydroxyphenyl)-6,7-dihydro-5H-pyrrolo[1,2-c]imidazol-1-yl)-6-methylpyridin-3-ol] | > 150 |
| Oc1ccncc1-c1nc(-c2cccc(F)c2O)n2c1CCCC2 [Compound 30, 3-(3-(3-Fluoro-2-hydroxyphenyl)-5,6,7,8-tetrahydroimidazo[1,5-a]pyridin-1-yl)pyridin-4-ol] | > 150 |
| Cc1ccc(O)c(-c2nc(-c3ccccc3O)n3c2CCCC3)n1 [Compound 1, 2-(3-(2-Hydroxyphenyl)-5,6,7,8-tetrahydroimidazo[1,5-a]pyridin-1-yl)-6-methylpyridin-3-ol] | > 150 |
| Oc1ccccc1-c1nc(-c2ccccc2O)n2c1CCC(C(F)(F)F)C2 (stereo not drawn) [Compound 36, 2,2′-(6-(Trifluoromethyl)-5,6,7,8-tetrahydroimidazo[1,5-a]pyridine-1,3-diyl)diphenol] | < 30 |
| Cc1ccc(O)c(-c2nc(-c3nc(C)ccc3O)c3n2CCCC3)c1 [Compound 5, 2-(3-(2-Hydroxy-5-methylphenyl)-5,6,7,8-tetrahydroimidazo[1,5-a]pyridin-1-yl)-6-methylpyridin-3-ol] | > 150 |
| Cc1ccc(O)c(-c2nc(-c3cc(F)ccc3O)n3c2CCCC3)n1 [Compound 3, 2-(3-(5-Fluoro-2-hydroxyphenyl)-5,6,7,8-tetrahydroimidazo[1,5-a]pyridin-1-yl)-6-methylpyridin-3-ol] | 100 to 150 |
| Cc1ccc(O)c(-c2nc(-c3ccccc3O)n3c2CCC3)n1 [Compound 50, 2-(3-(2-Hydroxyphenyl)-6,7-dihydro-5H-pyrrolo[1,2-c]imidazol-1-yl)-6-methylpyridin-3-ol] | > 150 |
| Cc1ccc(O)c(-c2nc(-c3cccc(F)c3O)n3c2CCCC3)n1 [Compound 2, 2-(3-(3-Fluoro-2-hydroxyphenyl)-5,6,7,8-tetrahydroimidazo[1,5-a]pyridin-1-yl)-6-methylpyridin-3-ol] | > 150 |
| Oc1ccccc1-c1nc(-c2ccccn2)n2c1CCCC2 [Compound 11, 2-(3-(Pyridin-2-yl)-5,6,7,8-tetrahydroimidazo[1,5-a]pyridin-1-yl)phenol] | < 30 |
| Cc1ccc(O)c(-c2nc(-c3ccccc3O)c3n2CCCC3)c1 [Compound 8, 2-(1-(2-Hydroxyphenyl)-5,6,7,8-tetrahydroimidazo[1,5-a]pyridin-3-yl)-4-methylphenol] | < 30 |
| Cc1ccc(O)c(-c2nc(-c3cccnc3O)c3n2CCCC3)c1 [Compound 13, 3-(3-(2-Hydroxy-5-methylphenyl)-5,6,7,8-tetrahydroimidazo[1,5-a]pyridine-1-yl)pyridine-2-ol] | 100 to 150 |
| Oc1ccccc1-c1nc(-c2cccc(CN3CCOCC3)c2O)n2c1CCCC2 [Compound 12, 2-(1-(2-Hydroxyphenyl)-5,6,7,8-tetrahydroimidazo[1,5-a]pyridin-3-yl)-6-(morpholinomethyl)phenol] | < 30 |
| Oc1ccncc1-c1nc(-c2ccccc2O)n2c1CCCC2 [Compound 29, 3-(3-(2-Hydroxyphenyl)-5,6,7,8-tetrahydroimidazo[1,5-a]pyridin-1-yl)pyridin-4-ol] | 100 to 150 |
| Cc1ccc(O)c(-c2nc(-c3c(O)cccc3F)n3c2CCCC3)n1 [Compound 4, 2-(3-(2-Fluoro-6-hydroxyphenyl)-5,6,7,8-tetrahydroimidazo[1,5-a]pyridin-1-yl)-6-methylpyridin-3-ol] | 30 to 100 |

same assay, conditions: M17 cells pre-loaded with 57Fe; compound 20 μM, 2 h; Fe in media as percentage increase relative to cell media in the absence of the compound

| SMILES | % Fe Efflux Range |
| --- | --- |
| Oc1cnccc1-c1nc(-c2ccccc2O)n2c1CCCC2 [Compound 21, 4-(3-(2-Hydroxyphenyl)-5,6,7,8-tetrahydroimidazo[1,5-a]pyridin-1-yl)pyridin-3-ol] | D (D>150%) |
